Values after ≈ are worked out from the molar mass of the structure shown. Blank lines part the entries; values can stand above or below the compound they belong to.
Columns and labels:
NR1/NR2C = NR1/NR2C (Rattus norvegicus, UniProt P35439+Q00961); experiment: Two-electrode voltage-clamp, recombinant NR1/NR2C in Xenopus oocytes; format: cell-based; conditions: for response at saturating concentration, NR2C (fitted minimum): fit with variable minimum
NR1/NR2D = NR1/NR2D (Rattus norvegicus, UniProt P35439+Q62645); experiment: Two-electrode voltage-clamp, recombinant NR1/NR2D in Xenopus oocytes; format: cell-based; conditions: for GluR1/NR2D: (IC50 GluR1)/(IC50 NR2D) / NR2A/NR2D: (IC50 NR2A)/(IC50 NR2D): selectivity ratio; for response at saturating concentration, NR2D (fitted minimum): fit with variable minimum
GluR1 = GluR1 (Rattus norvegicus, UniProt P19490); experiment: Two-electrode voltage-clamp, recombinant GluR1; format: cell-based
GluR6 = GluR6 (Rattus norvegicus, UniProt P42260); experiment: Two-electrode voltage-clamp, recombinant GluR6; format: cell-based; conditions: 30 μM compound
NR1/NR2A = NR1/NR2A (Rattus norvegicus, UniProt P35439+Q00959); experiment: Two-electrode voltage-clamp, recombinant NR1/NR2A in Xenopus oocytes; format: cell-based; conditions: for response at saturating concentration, NR2A (fitted minimum): fit with variable minimum, predicted
NR1/NR2B = NR1/NR2B (Rattus norvegicus, UniProt P35439+Q00960); experiment: Two-electrode voltage-clamp, recombinant NR1/NR2B in Xenopus oocytes; format: cell-based; conditions: for response at saturating concentration, NR2B (fitted minimum): fit with variable minimum, predicted
[1] = Maximum solubility by nephelometry; format: physicochemical; conditions: oocyte recording solution with 1% DMSO, aqueous buffer, kinetic from dmso stock

Sequence of GluR1 (P19490 19-907): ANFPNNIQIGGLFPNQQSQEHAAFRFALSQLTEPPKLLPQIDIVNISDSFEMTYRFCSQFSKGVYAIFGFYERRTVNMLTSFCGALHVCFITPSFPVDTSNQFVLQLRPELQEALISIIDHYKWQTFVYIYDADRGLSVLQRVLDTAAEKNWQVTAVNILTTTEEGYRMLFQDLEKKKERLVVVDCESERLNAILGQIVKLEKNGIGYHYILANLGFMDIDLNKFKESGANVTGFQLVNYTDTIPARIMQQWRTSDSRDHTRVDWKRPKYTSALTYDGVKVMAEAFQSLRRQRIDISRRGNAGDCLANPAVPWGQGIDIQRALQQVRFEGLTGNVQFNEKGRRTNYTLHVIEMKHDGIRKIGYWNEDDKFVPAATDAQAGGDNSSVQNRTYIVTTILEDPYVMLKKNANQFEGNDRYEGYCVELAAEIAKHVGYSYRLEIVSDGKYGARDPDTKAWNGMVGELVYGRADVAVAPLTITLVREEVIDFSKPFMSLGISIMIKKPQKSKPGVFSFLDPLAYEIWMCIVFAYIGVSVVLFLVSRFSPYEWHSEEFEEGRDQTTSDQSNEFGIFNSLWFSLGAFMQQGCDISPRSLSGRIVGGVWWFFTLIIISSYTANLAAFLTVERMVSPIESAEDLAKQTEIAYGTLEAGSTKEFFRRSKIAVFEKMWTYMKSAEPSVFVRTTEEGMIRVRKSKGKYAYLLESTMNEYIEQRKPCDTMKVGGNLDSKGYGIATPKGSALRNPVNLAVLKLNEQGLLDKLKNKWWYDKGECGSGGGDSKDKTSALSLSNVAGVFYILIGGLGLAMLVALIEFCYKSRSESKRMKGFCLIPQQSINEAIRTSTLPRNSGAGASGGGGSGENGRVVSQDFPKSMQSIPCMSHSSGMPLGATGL
Sequence of NR1/NR2A (Q00959 23-1464, other chains not shown): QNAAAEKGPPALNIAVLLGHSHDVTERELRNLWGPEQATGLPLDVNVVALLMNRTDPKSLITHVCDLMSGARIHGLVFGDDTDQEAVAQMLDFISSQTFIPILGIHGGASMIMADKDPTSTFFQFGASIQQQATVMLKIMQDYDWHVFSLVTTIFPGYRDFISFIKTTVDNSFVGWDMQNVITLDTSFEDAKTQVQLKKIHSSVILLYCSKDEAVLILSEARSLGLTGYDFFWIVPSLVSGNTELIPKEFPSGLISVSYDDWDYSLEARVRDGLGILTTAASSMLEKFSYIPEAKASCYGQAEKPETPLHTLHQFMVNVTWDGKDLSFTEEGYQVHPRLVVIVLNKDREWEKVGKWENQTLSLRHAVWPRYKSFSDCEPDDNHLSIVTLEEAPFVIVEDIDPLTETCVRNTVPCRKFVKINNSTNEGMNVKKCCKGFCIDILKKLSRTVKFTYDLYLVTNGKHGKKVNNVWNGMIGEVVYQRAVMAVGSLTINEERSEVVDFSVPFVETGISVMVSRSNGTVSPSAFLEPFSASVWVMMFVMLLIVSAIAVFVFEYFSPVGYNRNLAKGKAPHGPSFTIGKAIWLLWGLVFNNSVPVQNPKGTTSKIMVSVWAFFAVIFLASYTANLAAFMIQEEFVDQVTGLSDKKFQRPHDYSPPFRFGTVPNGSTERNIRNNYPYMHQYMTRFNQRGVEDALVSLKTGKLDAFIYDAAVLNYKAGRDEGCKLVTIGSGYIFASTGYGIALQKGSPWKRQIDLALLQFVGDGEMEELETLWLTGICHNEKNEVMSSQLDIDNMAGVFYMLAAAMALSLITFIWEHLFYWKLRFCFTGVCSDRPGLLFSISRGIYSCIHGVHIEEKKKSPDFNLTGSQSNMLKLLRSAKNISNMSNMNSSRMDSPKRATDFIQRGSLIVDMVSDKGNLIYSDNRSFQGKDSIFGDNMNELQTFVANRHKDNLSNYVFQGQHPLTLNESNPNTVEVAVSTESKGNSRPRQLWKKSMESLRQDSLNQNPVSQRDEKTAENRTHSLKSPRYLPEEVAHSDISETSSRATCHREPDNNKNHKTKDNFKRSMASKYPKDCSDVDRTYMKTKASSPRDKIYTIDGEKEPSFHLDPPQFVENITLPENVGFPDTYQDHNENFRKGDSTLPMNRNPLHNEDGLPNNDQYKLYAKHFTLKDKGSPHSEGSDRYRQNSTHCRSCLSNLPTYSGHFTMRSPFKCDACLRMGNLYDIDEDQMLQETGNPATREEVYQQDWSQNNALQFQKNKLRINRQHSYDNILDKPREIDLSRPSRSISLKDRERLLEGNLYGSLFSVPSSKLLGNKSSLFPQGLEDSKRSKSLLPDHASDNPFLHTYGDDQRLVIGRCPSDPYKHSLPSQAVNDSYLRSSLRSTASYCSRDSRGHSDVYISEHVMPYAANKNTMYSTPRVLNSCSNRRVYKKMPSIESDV
Sequence of NR1/NR2C (Q00961 20-1237, other chains not shown): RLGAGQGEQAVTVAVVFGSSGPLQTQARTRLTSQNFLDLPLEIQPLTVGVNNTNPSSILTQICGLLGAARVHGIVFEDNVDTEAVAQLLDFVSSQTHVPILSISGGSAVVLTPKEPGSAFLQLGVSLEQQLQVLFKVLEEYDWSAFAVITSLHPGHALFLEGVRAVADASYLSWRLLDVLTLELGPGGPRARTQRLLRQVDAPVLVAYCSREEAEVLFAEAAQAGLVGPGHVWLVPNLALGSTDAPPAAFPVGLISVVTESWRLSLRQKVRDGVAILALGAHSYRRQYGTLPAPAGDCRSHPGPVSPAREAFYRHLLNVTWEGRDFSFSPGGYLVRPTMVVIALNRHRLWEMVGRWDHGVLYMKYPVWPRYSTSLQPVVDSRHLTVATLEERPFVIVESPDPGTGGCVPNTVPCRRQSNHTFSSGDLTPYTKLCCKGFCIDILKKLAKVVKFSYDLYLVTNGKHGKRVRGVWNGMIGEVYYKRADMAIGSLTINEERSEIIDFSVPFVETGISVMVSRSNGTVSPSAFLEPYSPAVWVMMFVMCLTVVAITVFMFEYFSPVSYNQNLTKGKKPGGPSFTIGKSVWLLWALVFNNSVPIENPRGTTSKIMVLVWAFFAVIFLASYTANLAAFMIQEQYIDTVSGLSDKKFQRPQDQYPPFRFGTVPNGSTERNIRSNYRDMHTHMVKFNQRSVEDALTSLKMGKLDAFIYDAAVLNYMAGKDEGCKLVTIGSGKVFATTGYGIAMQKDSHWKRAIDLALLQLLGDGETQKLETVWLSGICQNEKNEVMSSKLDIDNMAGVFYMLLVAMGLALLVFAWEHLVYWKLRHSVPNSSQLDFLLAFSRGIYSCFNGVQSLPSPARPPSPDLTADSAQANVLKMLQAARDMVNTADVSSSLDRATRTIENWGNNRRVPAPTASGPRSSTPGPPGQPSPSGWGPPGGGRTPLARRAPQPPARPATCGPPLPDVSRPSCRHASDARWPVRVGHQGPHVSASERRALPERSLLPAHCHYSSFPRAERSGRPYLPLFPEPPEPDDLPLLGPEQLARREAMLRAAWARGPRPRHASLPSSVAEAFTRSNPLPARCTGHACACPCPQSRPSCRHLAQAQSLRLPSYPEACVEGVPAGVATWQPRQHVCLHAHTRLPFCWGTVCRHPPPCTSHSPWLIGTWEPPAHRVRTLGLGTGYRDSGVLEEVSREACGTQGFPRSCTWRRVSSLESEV
Sequence of NR1/NR2D (Q62645 28-1323, other chains not shown): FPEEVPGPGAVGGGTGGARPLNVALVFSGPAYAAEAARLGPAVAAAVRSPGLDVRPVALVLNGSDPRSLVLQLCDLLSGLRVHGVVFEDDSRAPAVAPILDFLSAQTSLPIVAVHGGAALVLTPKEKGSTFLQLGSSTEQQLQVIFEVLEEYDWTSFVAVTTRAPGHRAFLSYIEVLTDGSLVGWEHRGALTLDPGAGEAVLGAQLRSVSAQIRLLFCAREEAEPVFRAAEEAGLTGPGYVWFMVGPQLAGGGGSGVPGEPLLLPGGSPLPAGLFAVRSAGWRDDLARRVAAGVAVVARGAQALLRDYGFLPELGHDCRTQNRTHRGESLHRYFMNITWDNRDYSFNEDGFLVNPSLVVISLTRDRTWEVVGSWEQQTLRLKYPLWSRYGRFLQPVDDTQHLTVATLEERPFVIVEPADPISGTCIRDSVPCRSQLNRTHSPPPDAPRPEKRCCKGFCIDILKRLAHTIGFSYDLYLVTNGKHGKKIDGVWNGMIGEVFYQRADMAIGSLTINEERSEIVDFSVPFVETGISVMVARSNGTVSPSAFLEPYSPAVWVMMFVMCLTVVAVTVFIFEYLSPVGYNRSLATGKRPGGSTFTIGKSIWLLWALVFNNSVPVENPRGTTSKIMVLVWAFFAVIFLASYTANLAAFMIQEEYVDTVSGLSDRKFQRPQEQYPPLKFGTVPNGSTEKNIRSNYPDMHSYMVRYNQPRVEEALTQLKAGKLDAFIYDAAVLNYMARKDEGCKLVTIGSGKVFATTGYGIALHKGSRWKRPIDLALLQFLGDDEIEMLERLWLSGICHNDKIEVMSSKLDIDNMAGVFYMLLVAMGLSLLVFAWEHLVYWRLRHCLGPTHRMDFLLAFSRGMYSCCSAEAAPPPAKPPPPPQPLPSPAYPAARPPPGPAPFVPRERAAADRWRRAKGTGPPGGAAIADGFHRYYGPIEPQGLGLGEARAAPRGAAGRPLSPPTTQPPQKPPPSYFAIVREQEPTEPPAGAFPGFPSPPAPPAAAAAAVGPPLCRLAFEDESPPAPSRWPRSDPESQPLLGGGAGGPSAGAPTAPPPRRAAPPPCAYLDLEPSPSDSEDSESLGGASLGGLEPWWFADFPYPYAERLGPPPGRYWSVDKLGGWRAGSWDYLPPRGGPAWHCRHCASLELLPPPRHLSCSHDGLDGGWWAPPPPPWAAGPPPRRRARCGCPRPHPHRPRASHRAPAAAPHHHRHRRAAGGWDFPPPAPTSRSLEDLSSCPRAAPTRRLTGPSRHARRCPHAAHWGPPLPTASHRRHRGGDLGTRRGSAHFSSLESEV

- extent of inhibition of NR1/NR2C responses (NR1/NR2C): completely
- mode of inhibition at NR1/NR2C (NR1/NR2C): non-competitive
- voltage dependence of inhibition at NR1/NR2C (NR1/NR2C): voltage-independent
- extent of inhibition of NR1/NR2D responses (NR1/NR2D): completely
- voltage dependence of inhibition at NR1/NR2D (NR1/NR2D; 10 μM compound, -40 mV vs +40 mV): voltage-independent
- mode of inhibition at NR1/NR2D (NR1/NR2D; 30 μM compound, glutamate/glycine raised from 100/30 μM to 1000/300 μM): non-competitive
- fold more potent (lower fitted IC50) at NMDA receptors than AMPA receptors (GluR1): 4-5 fold
Compound: O=C(O)c1ccc(-n2c(/C=C/c3cccc([N+](=O)[O-])c3)nc3ccccc3c2=O)cc1 [Compound 2, (E)-4-(2-(3-nitrostyryl)-4-oxoquinazolin-3(4H)-yl)benzoic acid]

Compound: COc1ccccc1-n1c(/C=C/c2ccccc2[N+](=O)[O-])nc2ccccc2c1=O [Compound 3, (E)-3-(2-methoxyphenyl)-2-(2-nitrostyryl)quinazolin-4(3H)-one]
- extent of inhibition of NR1/NR2C responses (NR1/NR2C): completely
- extent of inhibition of NR1/NR2D responses (NR1/NR2D): completely
- fold more potent (lower fitted IC50) at NMDA receptors than AMPA receptors (GluR1): 4-5 fold

- IC50 (NR1/NR2C): 39 µM
Compound: O=C(O)c1ccc(-n2c(/C=C/c3ccccc3)nc3ccccc3c2=O)cc1 [Compound 23]

- IC50 (NR1/NR2C): 42 µM
Compound: COc1ccc(/C=C/c2nc3ccccc3c(=O)n2-c2ccc(C(=O)O)cc2)cc1 [Compound 24]

- IC50 (NR1/NR2C): 17 µM
Compound: COc1cccc(/C=C/c2nc3ccccc3c(=O)n2-c2ccc(C(=O)O)cc2)c1 [Compound 25]

- IC50 (NR1/NR2C): 32 µM
Compound: COc1ccccc1/C=C/c1nc2ccccc2c(=O)n1-c1ccc(C(=O)O)cc1 [Compound 26]

- IC50 (NR1/NR2C): 23 µM
Compound: O=C(O)c1ccc(-n2c(/C=C/c3ccc(C(F)(F)F)cc3)nc3ccccc3c2=O)cc1 [Compound 27]

- IC50 (NR1/NR2C): 8 µM
Compound: O=C(O)c1ccc(-n2c(/C=C/c3cccc(C(F)(F)F)c3)nc3ccccc3c2=O)cc1 [Compound 28]

- IC50 (NR1/NR2C): 88 µM
- GluR1/NR2D: (IC50 GluR1)/(IC50 NR2D) (NR1/NR2D): >10
- NR2A/NR2D: (IC50 NR2A)/(IC50 NR2D) (NR1/NR2D): >10
Compound: O=C(O)c1ccc(-n2c(/C=C/c3ccccc3C(F)(F)F)nc3ccccc3c2=O)cc1 [Compound 29]

- IC50 (NR1/NR2C): 50 µM
Compound: O=C(O)c1ccc(-n2c(/C=C/c3ccc(O)cc3)nc3ccccc3c2=O)cc1 [Compound 30]

- IC50 (NR1/NR2C): 28 µM
- GluR1/NR2D: (IC50 GluR1)/(IC50 NR2D) (NR1/NR2D): >17
Compound: Cc1ccc(/C=C/c2nc3ccccc3c(=O)n2-c2ccc(C(=O)O)cc2)cc1 [Compound 33]

- IC50 (NR1/NR2C): 28 µM
- GluR1/NR2D: (IC50 GluR1)/(IC50 NR2D) (NR1/NR2D): >16
Compound: Cc1cccc(/C=C/c2nc3ccccc3c(=O)n2-c2ccc(C(=O)O)cc2)c1 [Compound 34]

- GluR1/NR2D: (IC50 GluR1)/(IC50 NR2D) (NR1/NR2D): >20
- NR2A/NR2D: (IC50 NR2A)/(IC50 NR2D) (NR1/NR2D): >20
Compound: O=C(O)c1ccc(-n2c(/C=C/c3cccc([N+](=O)[O-])c3)nc3cccc(Cl)c3c2=O)cc1 [Compound 36, (E)-4-(5-chloro-2-(3-nitrostyryl)-4-oxoquinazolin-3(4H)-yl)benzoic acid]

- GluR1/NR2D: (IC50 GluR1)/(IC50 NR2D) (NR1/NR2D): >50
- NR2A/NR2D: (IC50 NR2A)/(IC50 NR2D) (NR1/NR2D): >50
Compound: O=C(O)c1ccc(-n2c(/C=C/c3ccc([N+](=O)[O-])cc3)nc3c(Cl)cc(Cl)cc3c2=O)cc1 [Compound 41, (E)-4-(6,8-dichloro-2-(4-nitrostyryl)-4-oxoquinazolin-3(4H)-yl)benzoic acid]

- IC50 (NR1/NR2C): 14 µM
Compound: O=C(O)c1ccc(-n2c(/C=C/c3cccc([N+](=O)[O-])c3)nc3ccc(F)cc3c2=O)cc1 [Compound 42, (E)-4-(6-fluoro-2-(3-nitrostyryl)-4-oxoquinazolin-3(4H)-yl)benzoic acid]

- selectivity for NR2C/D (NR2D) over NR2A/B (NR1/NR2D): > 50 fold
- effect on GluR6 responses (GluR6): No significant effect
Compound: COc1ccc2nc(/C=C/c3cccc([N+](=O)[O-])c3)n(-c3ccc(C(=O)O)cc3)c(=O)c2c1 [Compound 46, (E)-4-(6-methoxy-2-(3-nitrostyryl)-4-oxoquinazolin-3(4H)-yl)benzoic acid]

- response at saturating concentration, NR2A (fitted minimum) (NR1/NR2A): 68 % of control
- response at saturating concentration, NR2B (fitted minimum) (NR1/NR2B): 51 % of control
- response at saturating concentration, NR2C (fitted minimum) (NR1/NR2C): 22 % of control
- response at saturating concentration, NR2D (fitted minimum) (NR1/NR2D): 14 % of control
Compound: O=C(O)c1ccc(-n2c(/C=C/c3cccc([N+](=O)[O-])c3)nc3ccc(-c4ccccc4)cc3c2=O)cc1 [Compound 49, (E)-4-(2-(3-nitrostyryl)-4-oxo-6-phenylquinazolin-3(4H)-yl)benzoic acid]

- response at saturating concentration, NR2A (fitted minimum) (NR1/NR2A): 68 % of control
- response at saturating concentration, NR2B (fitted minimum) (NR1/NR2B): 50 % of control
- response at saturating concentration, NR2C (fitted minimum) (NR1/NR2C): 26 % of control
- response at saturating concentration, NR2D (fitted minimum) (NR1/NR2D): 20 % of control
Compound: O=C(O)c1ccc(-n2c(/C=C/c3cccc([N+](=O)[O-])c3)nc3cc4ccccc4cc3c2=O)cc1 [Compound 50, (E)-4-(2-(3-nitrostyryl)-4-oxobenzo[g]quinazolin-3(4H)-yl)benzoic acid]

- GluR1/NR2D: (IC50 GluR1)/(IC50 NR2D) (NR1/NR2D): >8
Compound: O=C(O)c1ccc(-n2c(/C=C/c3cccc([N+](=O)[O-])c3)nc3cc4c(cc3c2=O)OCO4)cc1 [Compound 52, (E)-4-(6-(3-nitrostyryl)-8-oxo-[1,3]dioxolo[4,5-g]quinazolin-7(8H)-yl)benzoic acid]

- GluR1/NR2D: (IC50 GluR1)/(IC50 NR2D) (NR1/NR2D): >2
- NR2A/NR2D: (IC50 NR2A)/(IC50 NR2D) (NR1/NR2D): >2
Compound: COc1ccc2nc(/C=C/c3cccc(C(=O)O)c3)n(-c3ccc(C(=O)O)cc3)c(=O)c2c1 [Compound 62, (E)-3-(2-(3-(4-carboxyphenyl)-6-methoxy-4-oxo-3,4-dihydroquinazolin-2-yl)vinyl)benzoic acid]

Compound: COc1ccc2nc(/C=C/c3ccc(OC(C)=O)c(OC(C)=O)c3)n(-c3ccc(C(=O)O)cc3)c(=O)c2c1 [Compound 64, (E)-4-(2-(3,4-diacetoxystyryl)-6-methoxy-4-oxoquinazolin-3(4H)-yl)benzoic acid]
- IC50 (NR1/NR2A): > 300 µM
- IC50 (NR1/NR2B): > 300 µM
- IC50 (NR1/NR2C): 124 µM
- IC50 (NR1/NR2D): 52 µM
- GluR1/NR2D: (IC50 GluR1)/(IC50 NR2D) (NR1/NR2D): >6
- NR2A/NR2D: (IC50 NR2A)/(IC50 NR2D) (NR1/NR2D): >6
- IC50 (GluR1): > 300 µM

- GluR1/NR2D: (IC50 GluR1)/(IC50 NR2D) (NR1/NR2D): >9
Compound: N#Cc1ccc(/C=C/c2nc3ccccc3c(=O)n2-c2ccc(C(=O)O)cc2)cc1 [Compound 66]

- GluR1/NR2D: (IC50 GluR1)/(IC50 NR2D) (NR1/NR2D): >10
- NR2A/NR2D: (IC50 NR2A)/(IC50 NR2D) (NR1/NR2D): >10
Compound: C=CCOc1ccc(/C=C/c2nc3ccccc3c(=O)n2-c2ccc(C(=O)O)cc2)cc1 [Compound 69]

- response at saturating concentration, NR2C (fitted minimum) (NR1/NR2C): 31 % of control
- response at saturating concentration, NR2D (fitted minimum) (NR1/NR2D): 26 % of control
- GluR1/NR2D: (IC50 GluR1)/(IC50 NR2D) (NR1/NR2D): >220
- effect on GluR6 responses (GluR6): No significant effect
- solubility [1]: 10 µM (≈ 5.39 µg/mL)
Compound: O=C(O)c1ccc(-n2c(/C=C/c3ccc([N+](=O)[O-])cc3)nc3ccc(I)cc3c2=O)cc1 [Compound 72, (E)-4-(6-iodo-2-(4-nitrostyryl)-4-oxoquinazolin-3(4H)-yl)benzoic acid]

- GluR1/NR2D: (IC50 GluR1)/(IC50 NR2D) (NR1/NR2D): >37
- NR2A/NR2D: (IC50 NR2A)/(IC50 NR2D) (NR1/NR2D): >37
Compound: O=C(O)c1cccc(-n2c(/C=C/c3ccc([N+](=O)[O-])cc3)nc3ccc(I)cc3c2=O)c1 [Compound 73, (E)-3-(6-iodo-2-(4-nitrostyryl)-4-oxoquinazolin-3(4H)-yl)benzoic acid]

- GluR1/NR2D: (IC50 GluR1)/(IC50 NR2D) (NR1/NR2D): >42
Compound: COc1ccc2nc(/C=C/c3ccc([N+](=O)[O-])cc3)n(-c3ccc(C(=O)O)cc3)c(=O)c2c1 [Compound 75, (E)-4-(6-methoxy-2-(4-nitrostyryl)-4-oxoquinazolin-3(4H)-yl)benzoic acid]

- GluR1/NR2D: (IC50 GluR1)/(IC50 NR2D) (NR1/NR2D): >19
Compound: COc1ccc2nc(/C=C/c3ccc([N+](=O)[O-])cc3)n(-c3cccc(C(=O)O)c3)c(=O)c2c1 [Compound 76, (E)-3-(6-methoxy-2-(4-nitrostyryl)-4-oxoquinazolin-3(4H)-yl)benzoic acid]

Compound: Cc1nc2ccc(I)cc2c(=O)n1-c1ccc(C(=O)O)cc1 [Compound 78, 4-(6-Iodo-2-methyl-4-oxoquinazolin-3(4H)-yl)benzoic acid]
- inhibitory activity (NR1/NR2D; concentrations up to 100 μM): total loss of inhibitory activity

- potency reduction on saturating the styryl linker (81 vs 80) (NR1/NR2D): 10 fold
Compound: Cc1ccc2nc(CCc3ccccc3)n(-c3ccc(C(=O)O)cc3)c(=O)c2c1 [Compound 81, 4-(6-Methyl-4-oxo-2-phenethylquinazolin-3(4H)-yl)benzoic acid]

- GluR1/NR2D: (IC50 GluR1)/(IC50 NR2D) (NR1/NR2D): >50
Compound: O=C(O)c1ccc(-n2c(/C=C/c3ccc4ccccc4c3)nc3ccccc3c2=O)cc1 [Compound 82]

- GluR1/NR2D: (IC50 GluR1)/(IC50 NR2D) (NR1/NR2D): >18
- NR2A/NR2D: (IC50 NR2A)/(IC50 NR2D) (NR1/NR2D): >18
Compound: O=C(O)c1ccc(-n2c(/C=C/c3ccc4c(c3)OCCO4)nc3ccccc3c2=O)cc1 [Compound 86]

Compound: COc1cccc(-n2c(/C=C/c3cccnc3)nc3ccc(I)cc3c2=O)c1 [Compound 90]
- IC50 (NR1/NR2D): 200 µM

Compound: (E)-4-(6,7-dimethoxy-2-(3-nitrostyryl)-4-oxoquinazolin-3(4H)-yl)benzoic acid [Compound 63]
- GluR1/NR2D: (IC50 GluR1)/(IC50 NR2D) (NR1/NR2D): 7
